Reference: publication PMC5590105 (Chemical communications (Cambridge, England), 2017)

Molecular target: T1, heparanase (Homo sapiens, UniProt Q9Y251)
T1 sequence (Q9Y251 158-543 limits assumed): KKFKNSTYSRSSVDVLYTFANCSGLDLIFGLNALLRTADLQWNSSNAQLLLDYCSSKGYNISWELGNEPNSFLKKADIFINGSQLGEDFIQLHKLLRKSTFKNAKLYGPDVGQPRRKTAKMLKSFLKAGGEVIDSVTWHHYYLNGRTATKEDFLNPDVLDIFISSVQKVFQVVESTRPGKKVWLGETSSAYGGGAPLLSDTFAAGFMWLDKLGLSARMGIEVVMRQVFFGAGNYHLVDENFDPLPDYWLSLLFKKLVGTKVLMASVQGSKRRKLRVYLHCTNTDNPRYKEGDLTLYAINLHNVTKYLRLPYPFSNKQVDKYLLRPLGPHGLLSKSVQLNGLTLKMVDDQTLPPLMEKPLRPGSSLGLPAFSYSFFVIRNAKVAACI
T1 sequence (Q9Y251 36-109 limits assumed): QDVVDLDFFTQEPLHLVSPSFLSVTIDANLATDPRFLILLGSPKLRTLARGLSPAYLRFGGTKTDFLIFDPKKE
Test: colorimetric WST-1 assay of cleavage by heparanase
Format: biochemical
Conditions: WST-1 colorimetric assay, over 21 h

Q: Which hydrolysis by heparanase does the source give for `CO[C@H]1O[C@H](COS(=O)(=O)O)[C@@H](O[C@@H]2O[C@@H](C(=O)O)[C@@H](O[C@H]3O[C@H](COS(=O)(=O)O)[C@@H](O[C@@H]4O[C@H](C(=O)O)[C@@H](O[C@H]5O[C@H](COS(=O)(=O)O)[C@@H](O)[C@H](O)[C@H]5NS(=O)(=O)O)[C@H](O)[C@H]4O)[C@H](OS(=O)(=O)O)[C@H]3NS(=O)(=O)O)[C@H](O)[C@H]2OS(=O)(=O)O)[C@H](O)[C@H]1NS(=O)(=O)O` [Fondaparinux] here?
A: Its hydrolysis by heparanase is “readily cleaved by heparanase”.
